The results in this text go back to ChEMBL document CHEMBL1221257, “Hit-to-lead optimization of a series of carboxamides of ethyl 2-amino-4-phenylthiazole-5-carboxylates as novel adenosine A2A receptor antagonists” (Bioorg Med Chem Lett, 2010).

The target in one assay is T1, Adenosine receptor A1 (Homo sapiens, UniProt P30542).
T1 sequence (P30542 whole entry): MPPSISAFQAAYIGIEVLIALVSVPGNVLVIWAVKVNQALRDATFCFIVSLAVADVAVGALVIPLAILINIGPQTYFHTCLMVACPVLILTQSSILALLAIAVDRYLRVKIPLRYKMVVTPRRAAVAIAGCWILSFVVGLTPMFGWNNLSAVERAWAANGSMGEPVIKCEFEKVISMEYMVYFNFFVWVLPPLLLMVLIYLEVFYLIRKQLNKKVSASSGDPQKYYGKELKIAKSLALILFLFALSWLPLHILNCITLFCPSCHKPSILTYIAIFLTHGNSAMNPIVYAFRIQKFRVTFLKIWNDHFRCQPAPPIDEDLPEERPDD
Nature of the assay: Displacement of [3H]DPCPX from human adenosine A1 receptor expressed in CHO cells by liquid scintillation counting. It counts as cell-based.

Assay [1] concerns the target T2, Adenosine receptor A2a (Homo sapiens, UniProt P29274).
Description: Displacement of [3H]ZM241385 from human adenosine A2A receptor expressed in buculovirus system by liquid scintillation counting
In assay [2] the target is T2, Adenosine receptor A2a. Nature of the assay: Displacement of [3H]ZM241385 from human adenosine A2A receptor expressed in buculovirus system at 10 uM by liquid scintillation counting. Background: Displacement assays read how much labelled ligand stays bound in the presence of the test substance.
Assay [3] has as its target T3, Adenosine receptor A1 (Homo sapiens) (UniProt P30542).
T3 sequence (whole entry): T1 sequence (P30542 whole entry)
The experiment in a line: Displacement of [3H]DPCPX from human adenosine A1 receptor expressed in CHO cells at 10 uM by liquid scintillation counting. Type of assay: cell-based.

The test system of assay [4] is Mus musculus. The experiment in a line: Reversal of haloperidol-induced hypolocomotion in po dosed NMRI mouse model of Parkinson's disease measured for 20 mins. Type of assay: functional.
The target in assay [5] is T3, Adenosine receptor A1 (Homo sapiens). Nature of the assay: Displacement of [3H]DPCPX from human adenosine A1 receptor expressed in CHO cells at 2000 nM by liquid scintillation counting. It counts as cell-based.
Assay [6] deals with Mus musculus. Nature of the assay: In-vivo displacement of [3H]SCH442416 from adenosine A2A receptor in po dosed NMRI mouse by liquid scintillation counting. Type of assay: functional.

T2 sequence (P29274 whole entry): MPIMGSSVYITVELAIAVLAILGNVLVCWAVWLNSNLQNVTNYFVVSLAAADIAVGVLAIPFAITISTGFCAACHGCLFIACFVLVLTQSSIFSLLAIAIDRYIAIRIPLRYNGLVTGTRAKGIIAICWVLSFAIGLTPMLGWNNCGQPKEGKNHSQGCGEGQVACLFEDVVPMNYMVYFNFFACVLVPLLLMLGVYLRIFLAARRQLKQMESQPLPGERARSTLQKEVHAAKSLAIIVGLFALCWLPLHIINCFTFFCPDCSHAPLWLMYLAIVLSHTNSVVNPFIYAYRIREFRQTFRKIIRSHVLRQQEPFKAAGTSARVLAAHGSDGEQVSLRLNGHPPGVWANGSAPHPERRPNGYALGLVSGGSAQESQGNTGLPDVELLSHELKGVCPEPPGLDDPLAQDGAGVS

As usually defined, the Ki is the dissociation constant of the complex between target and ligand, obtained from inhibition or displacement. Read a high Ki as a looser hold on the target. With `CCn1nnc(-c2sc(NC(=O)c3ccco3)nc2-c2ccccc2)n1`, the inhibition constant (Ki) was determined as 650 nM at Adenosine receptor A1 and 94 nM at Adenosine receptor A2a [1].
In the same order, the values of `CC(C)CC(=O)Nc1nc(-c2ccccc2)c(-c2ncon2)s1` are 77 nM and 340 nM.
On to `O=C(Nc1nc(-c2ccccc2)c(-c2ncon2)s1)c1ccccc1`, for which the values for the Ki on Adenosine receptor A1 and on Adenosine receptor A2a [1] were 300 nM and 330 nM, respectively.
In the same order, the values of `Cc1nc(-c2sc(NC(=O)c3ccco3)nc2-c2ccccc2)no1` are 780 nM and 700 nM.
In the same order, the values of `Cc1nc(-c2sc(NC(=O)CC(C)C)nc2-c2ccccc2)no1` are 82 nM and 33 nM.
`O=C(Nc1nc(-c2ccccc2)c(C(=O)O)s1)c1ccco1` had an Activity on Adenosine receptor A2a [2] of 0%.
Take `CC(=O)Nc1nc(-c2ccccc2)c(-c2noc(C)n2)s1`: the Activity in assay [3] turned out to be 76%. At Adenosine receptor A2a [1], this compound displayed a Ki of 190 nM.
In general, ED50 refers to the dose at which the effect has come halfway, by size or by number of responders. Turning to `CCn1c(=O)c2c(nc(/C=C/c3ccc(OC)c(OC)c3)n2C)n(CC)c1=O` [ISTRADEFYLLINE], the Ki on Adenosine receptor A1 stood at 3000 nM. In the assay with Mus musculus [4], the ED50 worked out at 0.13 mg/kg.
With `COCCOc1ccc(N2CCN(CCn3ncc4c3nc(N)n3nc(-c5ccco5)nc43)CC2)cc1` [PRELADENANT], the Ki on Adenosine receptor A1 is greater than 1000 nM; at Adenosine receptor A2a [1], 5 nM. In assay [5], this compound came in with an Activity of 30%. Moreover, the ED50 in the assay on Mus musculus [4] was determined as 0.4 mg/kg.
Regarding `CCNC(=O)c1sc(NC(=O)c2ccco2)nc1-c1ccccc1`, on Adenosine receptor A2a [2], the Activity is 37%.
As for `Cc1nc(-c2sc(NC(=O)Cc3ccccc3)nc2-c2ccccc2)no1`, the Ki at Adenosine receptor A1 came out at 260 nM; at Adenosine receptor A2a [1] it was 25 nM.
On to `CCn1nnc(-c2sc(NC(=O)Cc3ccccc3)nc2-c2ccccc2)n1`, for which the values for the Ki at Adenosine receptor A1 and at Adenosine receptor A2a [1] were 1200 nM and 460 nM, respectively.
In the same order, the values of `Cc1noc(-c2sc(NC(=O)Cc3ccccc3)nc2-c2ccccc2)n1` are 340 nM and 57 nM.
Take `CCS(=O)(=O)c1sc(NC(=O)c2ccco2)nc1-c1ccccc1`: the Activity at Adenosine receptor A2a [2] came to 25%.
As to `CCOCc1sc(NC(=O)c2ccco2)nc1-c1ccccc1`, the inhibitory constant (Ki) was determined as 92 nM at Adenosine receptor A1 and 190 nM at Adenosine receptor A2a [1].
Take `Cc1nc(-c2sc(NC(=O)c3ccccc3)nc2-c2ccccc2)no1`: in assay [3], the Activity was 45%. For the same compound, the Ki on Adenosine receptor A2a [1] came to 83 nM.
On to `CCn1nnc(-c2sc(NC(=O)Cc3ccc(OC)c(OC)c3)nc2-c2ccccc2)n1`, for which the Ki stood at 1600 nM at Adenosine receptor A1 and 45 nM on Adenosine receptor A2a [1].
In the case of `CC(=O)Nc1nc(-c2ccccc2)c(-c2nc(C)no2)s1`, the values for the inhibition constant Ki at Adenosine receptor A1 and at Adenosine receptor A2a [1] were 370 nM and 110 nM, respectively.
In the same order, the values of `O=C(Nc1nc(-c2ccccc2)c(-c2ncon2)s1)c1ccco1` are 230 nM and 410 nM.
Turning to `CCn1nnc(-c2sc(NC(=O)C3CC3)nc2-c2ccccc2)n1`, the Ki at Adenosine receptor A1 is 210 nM; on Adenosine receptor A2a [1], 77 nM.
In the same order, the values of `O=C(Cc1ccccc1)Nc1nc(-c2ccccc2)c(-c2ncon2)s1` are 1700 nM and 710 nM.
In the same order, the values of `Cc1noc(-c2sc(NC(=O)CC(C)C)nc2-c2ccccc2)n1` are 27 nM and 48 nM.
In the same order, the values of `Cc1noc(-c2sc(NC(=O)C3CC3)nc2-c2ccccc2)n1` are 41 nM and 12 nM.
As to `CCCC(=O)c1sc(NC(=O)c2ccco2)nc1-c1ccccc1`, the Ki was 90 nM at Adenosine receptor A1 and 62 nM at Adenosine receptor A2a [1].
Take `Cc1noc(-c2sc(NC(=O)c3ccccc3)nc2-c2ccccc2)n1`: the Ki on Adenosine receptor A1 was determined as 180 nM; on Adenosine receptor A2a [1], 190 nM.
As to `CCn1nnc(-c2sc(NC(=O)c3ccccc3)nc2-c2ccccc2)n1`, the Activity in assay [3] is 65%. Also, the affinity on Adenosine receptor A2a [1] corresponds to a Ki of 220 nM.
As for `Cc1noc(-c2sc(NC(=O)c3ccco3)nc2-c2ccccc2)n1`, the Ki on Adenosine receptor A1 amounted to 270 nM; at Adenosine receptor A2a [1], 200 nM.
In the same order, the values of `O=C(Nc1nc(-c2ccccc2)c(-c2ncon2)s1)C1CC1` are 310 nM and 120 nM.
Take `Cc1nc(-c2sc(NC(=O)C3CC3)nc2-c2ccccc2)no1`: the Ki on Adenosine receptor A1 was 150 nM; at Adenosine receptor A2a [1], 28 nM. Further, the Activity result in the assay with Mus musculus [4] was “Dose-dependent effect”. For the same compound, the ED50 came out at 7 mg/kg in the assay on Mus musculus [4] and 5.8 mg/kg with Mus musculus [6].
For `CCOC(=O)c1sc(NC(=O)c2ccco2)nc1-c1ccccc1`, the Ki was found to be 95 nM at Adenosine receptor A1 and 13 nM at Adenosine receptor A2a [1].
As for `N#Cc1sc(NC(=O)c2ccco2)nc1-c1ccccc1`, the Ki at Adenosine receptor A2a [1] turned out to be 290 nM.
